Laboratory results from patent US20090298857A1, “Treatment of Neurodegenerative Diseases Through Inhibition of HSP90” (SLOAN-KETTERING INSTITUTE FOR CANCER RESEARCH, priority 2006, published 2009).
Read-outs that look alike come from different tables or passages of the source.

Columns and labels:
[1] = test system: p35 in primary neurons, COS-7/p35 and COS-7/p35/Tau cells; assay: p35 degradation and Tau phosphorylation in primary neurons and transfected COS-7 cells; format: cell-based, rat; details: compared with PU24FC1
Protocol: To further examine the roles played by Hsp90 in tauopathy, we made use of both PU24FC1 and 17-(allyllamino)-17-demethoxygeldanamycin (17AAG) and investigated their effects on both cdk5/p35 and TauP301L in primary neuronal and COS-7 cell cultures. Primary neuronal cultures were derived from the cerebral cortices of embryonic day 17 rat embryos and maintained as described previously (105). To determine the effects of PU24FC1 on protein steady-states and on Tau phosphorylation, PU24FC1 was added at day 6 of culture, and cells were incubated at 37° C. as indicated. […] After incubation, cells were harvested and lysed in 2% SDS, and the resulting samples were analyzed by Western blotting.
Phosphorylation of Tau by cdk5 is initiated through activation by complex formation with one of the neuron-specific proteins p35 or p39. […] In concordance, we assessed the influence of Hsp90 inhibition on p35 cellular expression. A dose- and time-dependent degradation of p35 by PU24FC1 was detected in primary neurons by immunoblot and by immunofluorescence techniques, as well as in COS-7/p35 and COS-7/p35/Tau cells. […]
We detected a dose- and time-dependent degradation of p35 by PU24FC1 in primary neurons, as well as in COS-7/p35 and COS-7/p35/Tau cells. […] Reduction of p35 levels by Hsp90 inhibition affected the activity of the cdk5/p35 complex, as measured using a substrate of cdk5, the histone-H1. […]

[2] = target: P-glycoprotein (Homo sapiens, UniProt P08183); details: known Hsp90 inhibitor, cited from earlier work
[3] = known Hsp90 inhibitors; cited from earlier work

P-glycoprotein, sequence (P08183 whole entry): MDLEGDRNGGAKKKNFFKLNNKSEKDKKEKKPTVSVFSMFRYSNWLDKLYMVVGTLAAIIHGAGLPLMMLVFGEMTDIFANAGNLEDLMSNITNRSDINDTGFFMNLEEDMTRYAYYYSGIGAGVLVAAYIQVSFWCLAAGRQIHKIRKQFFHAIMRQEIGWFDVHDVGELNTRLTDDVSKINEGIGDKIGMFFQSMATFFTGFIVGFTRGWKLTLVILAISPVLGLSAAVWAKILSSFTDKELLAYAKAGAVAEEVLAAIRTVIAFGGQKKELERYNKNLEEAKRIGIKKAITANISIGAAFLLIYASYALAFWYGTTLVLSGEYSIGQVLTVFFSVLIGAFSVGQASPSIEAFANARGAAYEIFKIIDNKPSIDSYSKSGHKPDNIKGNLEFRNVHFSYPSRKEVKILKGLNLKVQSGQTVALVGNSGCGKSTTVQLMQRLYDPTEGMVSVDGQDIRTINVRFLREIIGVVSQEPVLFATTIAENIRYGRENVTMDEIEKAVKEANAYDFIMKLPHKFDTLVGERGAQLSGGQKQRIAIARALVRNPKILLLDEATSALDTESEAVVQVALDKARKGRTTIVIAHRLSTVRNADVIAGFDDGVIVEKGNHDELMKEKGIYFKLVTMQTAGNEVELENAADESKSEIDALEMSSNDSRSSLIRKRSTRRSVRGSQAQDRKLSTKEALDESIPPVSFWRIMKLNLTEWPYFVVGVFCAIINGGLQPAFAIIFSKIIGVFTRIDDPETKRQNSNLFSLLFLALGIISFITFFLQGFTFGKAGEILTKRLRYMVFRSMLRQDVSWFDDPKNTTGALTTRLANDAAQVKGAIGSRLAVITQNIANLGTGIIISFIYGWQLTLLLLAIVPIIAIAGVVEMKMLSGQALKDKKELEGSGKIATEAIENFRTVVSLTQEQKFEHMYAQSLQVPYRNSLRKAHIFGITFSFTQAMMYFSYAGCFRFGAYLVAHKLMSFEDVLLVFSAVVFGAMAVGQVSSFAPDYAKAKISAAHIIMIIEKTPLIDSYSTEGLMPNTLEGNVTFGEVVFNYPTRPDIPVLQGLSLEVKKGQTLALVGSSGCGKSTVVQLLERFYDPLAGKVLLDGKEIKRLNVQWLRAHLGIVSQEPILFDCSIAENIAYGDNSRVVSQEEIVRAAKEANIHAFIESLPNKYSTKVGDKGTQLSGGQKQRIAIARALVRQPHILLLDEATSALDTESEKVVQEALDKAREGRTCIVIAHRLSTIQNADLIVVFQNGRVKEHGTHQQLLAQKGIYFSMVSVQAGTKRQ

Row | SMILES | effects on p35 and mTau [1] | P-gp substrate [2] | P-gp substrate ([2]; listed as 17-AAG) | solubility [3]
1 | C=CCNC1=C2C[C@@H](C)C[C@H](OC)[C@H](O)[C@@H](C)/C=C(\C)[C@H](OC(N)=O)[C@@H](OC)/C=C\C=C(/C)C(=O)NC(=CC1=O)C2=O [Compound 17AAG, 17-(allyllamino)-17-demethoxygeldanamycin] | Analogous effects | is a P-gp substrate | is a P-glycoprotein substrate | poorly soluble
2 | COC1=C2C[C@@H](C)C[C@H](OC)[C@H](O)[C@@H](C)/C=C(\C)[C@H](OC(N)=O)[C@@H](OC)/C=C\C=C(/C)C(=O)NC(=CC1=O)C2=O [geldanamycin] |  |  |  | poorly soluble
3 | C[C@@H]1C[C@H]2O[C@@H]2/C=C\C=C\C(=O)Cc2c(Cl)c(O)cc(O)c2C(=O)O1 [radicicol] |  |  |  | poorly soluble
